In PMC12598616, “Design and optimization of caspase-1-responsive fluorescent probes for pyroptosis imaging and anti-pyroptosis drug screening” (Chemical Science, 2025):

System: caspase-8
Assay: Selectivity of probes: caspase-8
Format: biochemical, human
Conditions: caspase-8 1 μg/mL, 37 °C, 2 h, λex 510 nm, λem 585 nm
Text: The resin used for SPPS was purchased from GL Biochem (Shanghai, China). Lipopolysaccharide (LPS, L2630), Nigericin and ATP (11140965001) were purchased from Merck (Shanghai, China) and Invitrogen (Shanghai, China), respectively. Cell culture plates were sourced from Wuxi NEST Biotechnology. Recombinant human caspase-1, caspase-3, caspase-4, and caspase-8 were obtained from Abcam and MCE (Shanghai, China). Anti-cleaved caspase-1 antibody, anti-GAPDH antibody, and goat anti-Rabbit/anti-mouse lgG/HRP were purchased from CST (USA) and Beyotime […]
(Shanghai, China). […]
Medical College (ethical approval number ZJCLA-IACUC-20011003).
(also on this page, place not known: Wang,*f, Wang*abg Supplementary Information (SI) for Chemical Science. This journal is © The Royal Society of Chemistry 2025)
(1 picture or pasted object on this page, not shown here) […]
mixture was stirred for 3 h. […]
To investigate the sensitivity of the probes for caspase-1, varying concentration of caspase-1 (0, 0.2, 0.4, 0.6, 0.8, 1.0, 1.25, 1.5, 1.75, 2, 2.5, 3 U/mL) were incubated with FPy1 (5 μM), YPy1 (5 μM) and WPy1 (5 μM) respectively in caspase-1 assay buffer (50 mM HEPES, 50 mM NaCl, 0.1 % chaps, 5 % glycerol, 10 mM DTT, 10 mM EDTA) at 37 °C for 2 hours. Fluorescence spectra were recorded using Hitachi F-2700 spectrophotometer with an excitation at 510 nm (Photomultiplier voltage 700 V; Slit widths ex: 10 nm and em =5.0 nm). The fluorescence intensity of FPy1, YPy1 and WPy1 at 585 nm were plotted against the concentration of caspase-1, and a linear regression fitted from the corresponding concentration of caspase-1, and linear regression was applied to determine the slope k. The limit of detection (LoD) was calculated from 3σ/k, in which σ represents the standard deviation of 15 blank measurements. […]
The fluorescence intensity at 585 nm was measured on a Tecan Infinite M1000 Multi-function microplate reader (λex = 510 nm) at 37 °C every 2 minutes. The K M value of probes was determined from the Lineweaver-Burk plot. […]

Row | Substance | fluorescence response to caspase-8
1 | –YVADG– [YPy1, caspase-1-responsive FRET probe with recognition peptide –YVADG–; RhoB donor, hNR quencher] | almost no response
2 | –FLTDG– [FPy1, RhoB donor, hNR quencher] | almost no response
